# Test results as given in patent US6355799B1, “Substituted benzene compounds, process for their preparation, and herbicidal and defoliant compositions containing them” (ISK Americas Incorporated, priority 1997, dated 2002).
# Tests used:
# Format in all cases: in vivo
# [1] = tested on: redroot pigweed (Amaranthus retroflexus, AMARE); test: Pre-emerge test, greenhouse herbicide activity screening; conditions: pre-emerge; for Pre-emerge Herbicidal Activity AMARE: phytotoxicity rating 0-100 at 14 days after application; for phytotoxicity rating AMARE: 14 days after application, scale 0-100
# Summary of the method: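 Sandy loam pots; pre-emerge: sown 1 d pre-spray, surface-watered after, then bottom-watered. Post-emerge: sown 8–21 d before, 2–3 leaf stage, + 0.25% v/v NIS, bottom-watered. Acetone, 187 l/ha track spray, 15–1000 g ai/ha. 0–100 injury score, day 14.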
# [2] = tested on: barnyardgrass (Echinochloa crus-galli, ECHCG); test: as above; conditions: pre-emerge; for Pre-emerge Herbicidal Activity ECHCG: phytotoxicity rating 0-100 at 14 days after application; for phytotoxicity rating ECHCG: 14 days after application, scale 0-100
# Summary of the method: (§1)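 Compounds in acetone were track-sprayed at 187 l/ha, 15–1000 g ai/ha, onto sandy loam pots. Pre-emerge seeds were sown one day before spraying, with surface watering afterwards. Post-emerge plants were at the 2–3 leaf stage and sprayed with 0.25% v/v non-ionic surfactant. Injury was rated 0–100 at 14 days.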
# [3] = tested on: green foxtail (Setaria viridis, SETVI); test: as above; conditions: pre-emerge; for Pre-emerge Herbicidal Activity SETVI: phytotoxicity rating 0-100 at 14 days after application; for phytotoxicity rating SETVI: 14 days after application, scale 0-100
# Summary of the method: as §1
# [4] = tested on: ivyleaf morningglory (Ipomoea hederacea, IPOHE); test: as above; conditions: pre-emerge; for Pre-emerge Herbicidal Activity IPOHE: phytotoxicity rating 0-100 at 14 days after application; for phytotoxicity rating IPOHE: 14 days after application, scale 0-100
# Summary of the method: as §1
# [5] = tested on: johnsongrass (Sorghum halepense, SORHA); test: as above; conditions: pre-emerge; for Pre-emerge Herbicidal Activity SORHA: phytotoxicity rating 0-100 at 14 days after application; for phytotoxicity rating SORHA: 14 days after application, scale 0-100
# Summary of the method: as §1
# [6] = tested on: lambsquarters (Chenopodium album, CHEAL); test: as above; conditions: pre-emerge; for Pre-emerge Herbicidal Activity CHEAL: phytotoxicity rating 0-100 at 14 days after application; for phytotoxicity rating CHEAL: 14 days after application, scale 0-100
# Summary of the method: as §1
# [7] = tested on: large crabgrass (Digitaria sanguinalis, DIGSA); test: as above; conditions: pre-emerge; for Pre-emerge Herbicidal Activity DIGSA: phytotoxicity rating 0-100 at 14 days after application; for phytotoxicity rating DIGSA: 14 days after application, scale 0-100
# Summary of the method: as §1
# [8] = tested on: sicklepod (Cassia obtusifolia, CASOB); test: as above; conditions: pre-emerge; for Pre-emerge Herbicidal Activity CASOB: phytotoxicity rating 0-100 at 14 days after application; for phytotoxicity rating CASOB: 14 days after application, scale 0-100
# Summary of the method: as §1
# [9] = tested on: velvetleaf (Abutilon theophrasti, ABUTH); test: as above; conditions: pre-emerge; for Pre-emerge Herbicidal Activity ABUTH: phytotoxicity rating 0-100 at 14 days after application; for phytotoxicity rating ABUTH: 14 days after application, scale 0-100
# Summary of the method: as §1
# [10] = tested on: field corn (Zea mays L., var. Dekalb 535, CORN); test: Pre-emerge test, crop safety; conditions: pre-emerge; for Pre-emerge Herbicidal Activity CORN: crop damage, phytotoxicity rating 0-100 at 14 days after application; for phytotoxicity rating CORN (crop damage): 14 days after application, scale 0-100
# Summary of the method: (§2)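 Applied at 15–1000 g ai/ha from acetone in 187 l/ha spray volume. Post-emergence applications included 0.25% v/v non-ionic surfactant and reached plants sown 8–21 days before. Pre-emergence applications were incorporated by surface watering. Efficacy or crop damage was rated on a 0–100 scale after 14 days.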
# [11] = tested on: upland rice (Oryza sp., var. Tebonnet, RICE); test: Pre-emerge test, crop safety; conditions: pre-emerge; for Pre-emerge Herbicidal Activity RICE: crop damage, phytotoxicity rating 0-100 at 14 days after application; for phytotoxicity rating RICE (crop damage): 14 days after application, scale 0-100
# Summary of the method: as §2
# [12] = tested on: barnyardgrass (Echinochloa crus-galli, ECHCG); test: Post-emerge test, greenhouse herbicide activity screening; conditions: post-emerge; for Post-emerge Herbicidal Activity ECHCG: phytotoxicity rating 0-100 at 14 days after application; for ECHCG phytotoxicity rating: 14 days after application, rating scale 0-100
# Summary of the method: (§3)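 Each test used a mechanized track sprayer delivering 187 l/ha of acetone solution at 15–1000 g ai/ha. Post-emerge foliage at 2–3 leaves was treated with added 0.25% v/v non-ionic surfactant and bottom-watered only. Injury was assessed on day 14, where 100 means total kill.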
# [13] = tested on: green foxtail (Setaria viridis, SETVI); test: as above; conditions: post-emerge; for Post-emerge Herbicidal Activity SETVI: phytotoxicity rating 0-100 at 14 days after application; for SETVI phytotoxicity rating: 14 days after application, rating scale 0-100
# Summary of the method: as §3
# [14] = tested on: ivyleaf morningglory (Ipomoea hederacea, IPOHE); test: as above; conditions: post-emerge; for Post-emerge Herbicidal Activity IPOHE: phytotoxicity rating 0-100 at 14 days after application; for IPOHE phytotoxicity rating: 14 days after application, rating scale 0-100
# Summary of the method: as §3
# [15] = tested on: lambsquarters (Chenopodium album, CHEAL); test: as above; conditions: post-emerge; for Post-emerge Herbicidal Activity CHEAL: phytotoxicity rating 0-100 at 14 days after application; for CHEAL phytotoxicity rating: 14 days after application, rating scale 0-100
# Summary of the method: as §3
# [16] = tested on: large crabgrass (Digitaria sanguinalis, DIGSA); test: as above; conditions: post-emerge; for Post-emerge Herbicidal Activity DIGSA: phytotoxicity rating 0-100 at 14 days after application; for DIGSA phytotoxicity rating: 14 days after application, rating scale 0-100
# Summary of the method: as §3
# [17] = tested on: redroot pigweed (Amaranthus retroflexus, AMARE); test: as above; conditions: post-emerge; for Post-emerge Herbicidal Activity AMARE: phytotoxicity rating 0-100 at 14 days after application; for AMARE phytotoxicity rating: 14 days after application, rating scale 0-100
# Summary of the method: as §3
# [18] = tested on: sicklepod (Cassia obtusifolia, CASOB); test: as above; conditions: post-emerge; for Post-emerge Herbicidal Activity CASOB: phytotoxicity rating 0-100 at 14 days after application; for CASOB phytotoxicity rating: 14 days after application, rating scale 0-100
# Summary of the method: as §3
# [19] = tested on: velvetleaf (Abutilon theophrasti, ABUTH); test: as above; conditions: post-emerge; for Post-emerge Herbicidal Activity ABUTH: phytotoxicity rating 0-100 at 14 days after application; for ABUTH phytotoxicity rating: 14 days after application, rating scale 0-100
# Summary of the method: as §3
# [20] = tested on: field corn (Zea mays L., var. Dekalb 535, CORN); test: Post-emerge test, crop safety; conditions: post-emerge; for Post-emerge Herbicidal Activity CORN: crop damage rating 0-100 at 14 days after application; for CORN phytotoxicity rating (crop damage): 14 days after application, rating scale 0-100
# Summary of the method: as §1
# [21] = tested on: upland rice (Oryza sp., var. Tebonnet, RICE); test: Post-emerge test, crop safety; conditions: post-emerge; for Post-emerge Herbicidal Activity RICE: crop damage rating 0-100 at 14 days after application; for RICE phytotoxicity rating (crop damage): 14 days after application, rating scale 0-100
# Summary of the method: as §1
smiles,measurement,setting,value
COc1c(Cl)cc(F)c(-n2nnn(CCCF)c2=O)c1NC(=O)c1ccc2ccccc2c1 [Compound 5-26],Pre-emerge Herbicidal Activity AMARE,[1]; rate 63 g ai/ha,100
same,Pre-emerge Herbicidal Activity AMARE,[1]; rate 250 g ai/ha,100
same,Pre-emerge Herbicidal Activity ECHCG,[2]; rate 63 g ai/ha,20
same,Pre-emerge Herbicidal Activity ECHCG,[2]; rate 250 g ai/ha,30
same,Pre-emerge Herbicidal Activity SETVI,[3]; rate 63 g ai/ha,60
same,Pre-emerge Herbicidal Activity SETVI,[3]; rate 250 g ai/ha,90
same,Pre-emerge Herbicidal Activity IPOHE,[4]; rate 63 g ai/ha,0
same,Pre-emerge Herbicidal Activity IPOHE,[4]; rate 250 g ai/ha,40
same,Pre-emerge Herbicidal Activity SORHA,[5]; rate 63 g ai/ha,0
same,Pre-emerge Herbicidal Activity SORHA,[5]; rate 250 g ai/ha,30
same,Pre-emerge Herbicidal Activity CHEAL,[6]; rate 63 g ai/ha,100
same,Pre-emerge Herbicidal Activity CHEAL,[6]; rate 250 g ai/ha,100
same,Pre-emerge Herbicidal Activity DIGSA,[7]; rate 63 g ai/ha,30
same,Pre-emerge Herbicidal Activity DIGSA,[7]; rate 250 g ai/ha,80
same,Pre-emerge Herbicidal Activity CASOB,[8]; rate 63 g ai/ha,10
same,Pre-emerge Herbicidal Activity CASOB,[8]; rate 250 g ai/ha,80
same,Pre-emerge Herbicidal Activity ABUTH,[9]; rate 63 g ai/ha,70
same,Pre-emerge Herbicidal Activity ABUTH,[9]; rate 250 g ai/ha,100
same,Pre-emerge Herbicidal Activity CORN,[10]; rate 63 g ai/ha,0
same,Pre-emerge Herbicidal Activity CORN,[10]; rate 250 g ai/ha,0
same,Pre-emerge Herbicidal Activity RICE,[11]; rate 63 g ai/ha,15
same,Pre-emerge Herbicidal Activity RICE,[11]; rate 250 g ai/ha,40
same,Post-emerge Herbicidal Activity ECHCG,[12]; 63 g ai/ha,20
same,Post-emerge Herbicidal Activity ECHCG,[12]; 250 g ai/ha,60
same,Post-emerge Herbicidal Activity SETVI,[13]; 63 g ai/ha,40
same,Post-emerge Herbicidal Activity SETVI,[13]; 250 g ai/ha,70
same,Post-emerge Herbicidal Activity IPOHE,[14]; 63 g ai/ha,90
same,Post-emerge Herbicidal Activity IPOHE,[14]; 250 g ai/ha,70
same,Post-emerge Herbicidal Activity CHEAL,[15]; 63 g ai/ha,100
same,Post-emerge Herbicidal Activity CHEAL,[15]; 250 g ai/ha,100
same,Post-emerge Herbicidal Activity DIGSA,[16]; 63 g ai/ha,20
same,Post-emerge Herbicidal Activity DIGSA,[16]; 250 g ai/ha,30
same,Post-emerge Herbicidal Activity AMARE,[17]; 63 g ai/ha,100
same,Post-emerge Herbicidal Activity AMARE,[17]; 250 g ai/ha,90
same,Post-emerge Herbicidal Activity CASOB,[18]; 63 g ai/ha,90
same,Post-emerge Herbicidal Activity CASOB,[18]; 250 g ai/ha,100
same,Post-emerge Herbicidal Activity ABUTH,[19]; 63 g ai/ha,100
same,Post-emerge Herbicidal Activity ABUTH,[19]; 250 g ai/ha,100
same,Post-emerge Herbicidal Activity CORN,[20]; 63 g ai/ha,10
same,Post-emerge Herbicidal Activity CORN,[20]; 250 g ai/ha,5
same,Post-emerge Herbicidal Activity RICE,[21]; 63 g ai/ha,50
same,Post-emerge Herbicidal Activity RICE,[21]; 250 g ai/ha,60
COc1c(Cl)cc(F)c(-n2c(=O)cc(C(F)(F)F)n(N)c2=O)c1NC(=O)C=Cc1ccccc1 [2-185],phytotoxicity rating AMARE,[1]; 63 g ai/ha,100
same,phytotoxicity rating AMARE,[1]; 250 g ai/ha,100
same,phytotoxicity rating ECHCG,[2]; 63 g ai/ha,10
same,phytotoxicity rating ECHCG,[2]; 250 g ai/ha,10
same,phytotoxicity rating SETVI,[3]; 63 g ai/ha,30
same,phytotoxicity rating SETVI,[3]; 250 g ai/ha,50
same,phytotoxicity rating IPOHE,[4]; 63 g ai/ha,60
same,phytotoxicity rating IPOHE,[4]; 250 g ai/ha,60
same,phytotoxicity rating SORHA,[5]; 63 g ai/ha,20
same,phytotoxicity rating SORHA,[5]; 250 g ai/ha,20
same,phytotoxicity rating CHEAL,[6]; 63 g ai/ha,100
same,phytotoxicity rating CHEAL,[6]; 250 g ai/ha,100
same,phytotoxicity rating DIGSA,[7]; 63 g ai/ha,20
same,phytotoxicity rating DIGSA,[7]; 250 g ai/ha,40
same,phytotoxicity rating CASOB,[8]; 63 g ai/ha,0
same,phytotoxicity rating CASOB,[8]; 250 g ai/ha,60
same,phytotoxicity rating ABUTH,[9]; 63 g ai/ha,90
same,phytotoxicity rating ABUTH,[9]; 250 g ai/ha,100
same,phytotoxicity rating CORN (crop damage),[10]; 63 g ai/ha,0
same,phytotoxicity rating CORN (crop damage),[10]; 250 g ai/ha,5
same,phytotoxicity rating RICE (crop damage),[11]; 63 g ai/ha,20
same,phytotoxicity rating RICE (crop damage),[11]; 250 g ai/ha,40
same,ECHCG phytotoxicity rating,[12]; 63 g ai/ha,0
same,ECHCG phytotoxicity rating,[12]; 250 g ai/ha,0
same,SETVI phytotoxicity rating,[13]; 63 g ai/ha,0
same,SETVI phytotoxicity rating,[13]; 250 g ai/ha,20
same,IPOHE phytotoxicity rating,[14]; 63 g ai/ha,60
same,IPOHE phytotoxicity rating,[14]; 250 g ai/ha,80
same,CHEAL phytotoxicity rating,[15]; 63 g ai/ha,70
same,CHEAL phytotoxicity rating,[15]; 250 g ai/ha,100
same,DIGSA phytotoxicity rating,[16]; 63 g ai/ha,0
same,DIGSA phytotoxicity rating,[16]; 250 g ai/ha,10
same,AMARE phytotoxicity rating,[17]; 63 g ai/ha,80
same,AMARE phytotoxicity rating,[17]; 250 g ai/ha,100
same,CASOB phytotoxicity rating,[18]; 63 g ai/ha,40
same,CASOB phytotoxicity rating,[18]; 250 g ai/ha,60
same,ABUTH phytotoxicity rating,[19]; 63 g ai/ha,100
same,ABUTH phytotoxicity rating,[19]; 250 g ai/ha,100
same,CORN phytotoxicity rating (crop damage),[20]; 63 g ai/ha,0
same,CORN phytotoxicity rating (crop damage),[20]; 250 g ai/ha,5
same,RICE phytotoxicity rating (crop damage),[21]; 63 g ai/ha,20
same,RICE phytotoxicity rating (crop damage),[21]; 250 g ai/ha,35
